Measured values reported in patent publication US20250000896A1, “Xenon Gas for Use in the Treatment of Gliomas” (Universität Heidelberg, priority 2021, published 2025).

Tests used:
Assay type in all cases: cell-based
[1] = system: HeLa cervical cancer cells; assay: Colony formation assay (CFA) with HeLa cervical cancer cells after irradiation; conditions: for mean survival fraction in relation to the control group: 50% Xe for 60 min after irradiation, colonies counted after 11 days
From the text: In radiobiological research, colony formation assay (CFA) represents an established method to evaluate the in-vitro-effects of radiation treatment (RT) alone or in combination with additional substances on cell survival and reproduction capability.
To provide a method for investigation of modulating properties mediated by gaseous agents in combination with ionizing radiation treatment, a system to combine CFA with gas exposure before, during or after radiation treatment was designed. Subsequently CFA were performed with established glioma cell lines U87MG and U251, as well as cervical cancer-derived cell line HeLa investigating the effect of xenon gas exposure on cell survival after radiation treatment. Expression of AMPAR and NMDAR subunits was tested by immunofluorescence staining.
In vitro colony formation assay (CFA) comparing surviving fractions of irradiated U87MG cells and U251 cells exposed to 50% Xe and/or treated with 25 μM of memantine to a control group were performed. Additionally, a CFA comparing surviving fractions of irradiated HeLa cells exposed to 50% Xe to a control group was implemented. CFA were carried out in triplets of T25-flasks for each irradiation dose of 0, 2, 4, 6 and 8 Gy in three (U87MG and HeLa) or four (U251) independent repetitions.
U87MG and HeLa cells were cultured in Dulbecco's modified eagle's medium (DMEM; U87: Biochrom AG, Berlin, Germany; HeLa: Thermo Fisher Scientific, Waltham, US) and U251 cells were cultured in Gibco Roswell Park Memorial Institute (RPMI) 1640 medium+GlutaMAX™ (Thermo Fisher Scientific, Waltham, US). Cells were stored in an incubator (ambient air with additional 5% CO2) and split regularly before confluence. In preparation of CFA, cells were dissolved, counted, and distributed into T25-flasks starting with 1000 cells (U87MG), 100 cells (U251), or 200 cells (HeLa) per flask for non-irradiated groups increasing the cell count with irradiation dose to 1000, 2000, 5000, and 10.000 cells (U87MG), 200, 600, 2000, and 5000 cells (U251), or 400, 800, 2000, and 4000 cells (HeLa), respectively. Cells were allowed to attach for 14 to 16 h (U87MG), for 4 h (U251), or for 5.5 h (HeLa) and 108 μl of either memantine-hydrochloride 0.25 mg/ml (Sigma-Aldrich Corp., St. Louis, USA) or distilled water as placebo were added 60 min at U87MG and 90 min at U251 and HeLa prior to irradiation, resulting in 25 μM memantine-hydrochloride per flask.
For irradiation, 15 flasks (5 triplets, each for 0, 2, 4, 6, 8 Gy) were placed alongside the margin of eight acrylic glass plates (thickness 1.0 cm) with two plates further added on top to balance secondary electrons. Vertical position to the gantry of a conventional linear accelerator (Elekta Synergy, Elekta AB, Stockholm, Sweden) was allocated by wall-mounted lasers marking the center of the flasks' caps membrane, horizontal position was validated by opening the linear accelerator's light field (32.0×32.0 cm) and by positioning the plates centrally inside the field. The triplet from the 0 Gy dose-group was removed immediately after placement (sham-irradiation) and exchanged with dummy T25-flasks filled with water. After delivery of 181.2 MU of 6 MeV photons, equivalent to an effective dose of 2 Gy, the 2 Gy-triplet was removed and replaced by dummy flasks. This process was repeated until a cumulative dose of 8 Gy for the last triplet was reached.
Gas exposure was performed after the radiation treatment described above. The flasks were exposed to a preformed gas mixture for 60 minutes containing either 75% Xe, 20% O2 and 5% CO2 for the xenon group or a mixture with the 75% Xe-proportion replaced by nitrogen (N2) for the memantine group and the control group. […] After exposure, the flasks membrane caps were sealed with custom PVC-plugs and stored in a heat cabinet for 24 hours. Finally, the membrane caps' plugs were removed and the flasks were transferred into the 5% CO2-incubator remaining untouched for 13 days (U87MG), 10 days (U251), or 10 days (HeLa). […]

U87MG glioma cells = assay: Colony formation assay (CFA) with U87MG glioma cells after irradiation; conditions: for mean survival fraction in relation to the control group: 50% Xe for 60 min after irradiation and/or 25 μM memantine, colonies counted after 14 days
From the text: (§1) In radiobiological research, colony formation assay (CFA) represents an established method to evaluate the in-vitro-effects of radiation treatment (RT) alone or in combination with additional substances on cell survival and reproduction capability. To provide a method for investigation of modulating properties mediated by gaseous agents in combination with ionizing radiation treatment, a system to combine CFA with gas exposure before, during or after radiation treatment was designed. Subsequently CFA were performed with established glioma cell lines U87MG and U251, as well as cervical cancer-derived cell line HeLa investigating the effect of xenon gas exposure on cell survival after radiation treatment. Expression of AMPAR and NMDAR subunits was tested by immunofluorescence staining. In vitro colony formation assay (CFA) comparing surviving fractions of irradiated U87MG cells and U251 cells exposed to 50% Xe and/or treated with 25 μM of memantine to a control group were performed. Additionally, a CFA comparing surviving fractions of irradiated HeLa cells exposed to 50% Xe to a control group was implemented. CFA were carried out in triplets of T25-flasks for each irradiation dose of 0, 2, 4, 6 and 8 Gy in three (U87MG and HeLa) or four (U251) independent repetitions. U87MG and HeLa cells were cultured in Dulbecco's modified eagle's medium (DMEM; U87: Biochrom AG, Berlin, Germany; HeLa: Thermo Fisher Scientific, Waltham, US) and U251 cells were cultured in Gibco Roswell Park Memorial Institute (RPMI) 1640 medium+GlutaMAX™ (Thermo Fisher Scientific, Waltham, US). Cells were stored in an incubator (ambient air with additional 5% CO2) and split regularly before confluence. In preparation of CFA, cells were dissolved, counted, and distributed into T25-flasks starting with 1000 cells (U87MG), 100 cells (U251), or 200 cells (HeLa) per flask for non-irradiated groups increasing the cell count with irradiation dose to 1000, 2000, 5000, and 10.000 cells (U87MG), 200, 600, 2000, and 5000 cells (U251), or 400, 800, 2000, and 4000 cells (HeLa), respectively. Cells were allowed to attach for 14 to 16 h (U87MG), for 4 h (U251), or for 5.5 h (HeLa) and 108 μl of either memantine-hydrochloride 0.25 mg/ml (Sigma-Aldrich Corp., St. Louis, USA) or distilled water as placebo were added 60 min at U87MG and 90 min at U251 and HeLa prior to irradiation, resulting in 25 μM memantine-hydrochloride per flask. For irradiation, 15 flasks (5 triplets, each for 0, 2, 4, 6, 8 Gy) were placed alongside the margin of eight acrylic glass plates (thickness 1.0 cm) with two plates further added on top to balance secondary electrons. Vertical position to the gantry of a conventional linear accelerator (Elekta Synergy, Elekta AB, Stockholm, Sweden) was allocated by wall-mounted lasers marking the center of the flasks' caps membrane, horizontal position was validated by opening the linear accelerator's light field (32.0×32.0 cm) and by positioning the plates centrally inside the field. The triplet from the 0 Gy dose-group was removed immediately after placement (sham-irradiation) and exchanged with dummy T25-flasks filled with water. After delivery of 181.2 MU of 6 MeV photons, equivalent to an effective dose of 2 Gy, the 2 Gy-triplet was removed and replaced by dummy flasks. This process was repeated until a cumulative dose of 8 Gy for the last triplet was reached. Gas exposure was performed after the radiation treatment described above. The flasks were exposed to a preformed gas mixture for 60 minutes containing either 75% Xe, 20% O2 and 5% CO2 for the xenon group or a mixture with the 75% Xe-proportion replaced by nitrogen (N2) for the memantine group and the control group. […] After exposure, the flasks membrane caps were sealed with custom PVC-plugs and stored in a heat cabinet for 24 hours. Finally, the membrane caps' plugs were removed and the flasks were transferred into the 5% CO2-incubator remaining untouched for 13 days (U87MG), 10 days (U251), or 10 days (HeLa). […]

U251 glioma cells = assay: Colony formation assay (CFA) with U251 glioma cells after irradiation; conditions: 50% Xe for 60 min after irradiation and/or 25 μM memantine, colonies counted after 11 days
From the text: as §1

For `[Xe]` [xenon], the “impact of xenon exposure after irradiation on HeLa cell survival” value ([1]; 50% Xe after irradiation, except at a very high radiation dose level) was “no impact”, the “mean survival fraction in relation to the control group” value (from here on “mean survival fraction in relation”) ([1]; radiation dose 0 Gy (sham)) was 114.7% and the “mean survival fraction in relation” value ([1]; radiation dose 2 Gy) was 71.1%. The “mean survival fraction in relation” value ([1]; radiation dose 4 Gy) was 23.5%, the “mean survival fraction in relation” value ([1]; radiation dose 6 Gy) was 7.1% and the “mean survival fraction in relation” value ([1]; radiation dose 8 Gy) was 2.0%. The “mean survival fraction in relation” value (U87MG glioma cells; radiation dose 0 Gy (sham)) was 94.2%, the “mean survival fraction in relation” value (U87MG glioma cells; radiation dose 2 Gy) was 41.5% and the “mean survival fraction in relation” value (U87MG glioma cells; radiation dose 4 Gy) was 25.0%. The “mean survival fraction in relation” value (U87MG glioma cells; radiation dose 6 Gy) was 10.3%, the “mean survival fraction in relation” value (U87MG glioma cells; radiation dose 8 Gy) was 4.7% and the “mean survival fraction in relation” value (U251 glioma cells; radiation dose 0 Gy (sham)) was 78.7%. The “mean survival fraction in relation” value (U251 glioma cells; radiation dose 2 Gy) was 37.5%, the “mean survival fraction in relation” value (U251 glioma cells; radiation dose 4 Gy) was 14.6% and the “mean survival fraction in relation” value (U251 glioma cells; radiation dose 6 Gy) was 4.2%. For the same compound, the “mean survival fraction in relation” value (U251 glioma cells; radiation dose 8 Gy) was 1.0%.
In the case of `CC12CC3CC(C)(C1)CC(N)(C3)C2` [memantine], the “difference in survival to the groups without added memantine” value (U87MG glioma cells; 25 μM memantine, 0 to 8 Gy, t-test) is reported as “no significant differences”, the “mean survival fraction in relation” value (U87MG glioma cells; radiation dose 0 Gy (sham)) is reported as 93.8% and the “mean survival fraction in relation” value (U87MG glioma cells; radiation dose 2 Gy) is reported as 46.8%. For the same compound, the “mean survival fraction in relation” value (U87MG glioma cells; radiation dose 4 Gy) was 28.5%, the “mean survival fraction in relation” value (U87MG glioma cells; radiation dose 6 Gy) was 15.9% and the “mean survival fraction in relation” value (U87MG glioma cells; radiation dose 8 Gy) was 8.0%. The “mean survival fraction in relation” value (U251 glioma cells; radiation dose 0 Gy (sham)) was 72.3%, the “mean survival fraction in relation” value (U251 glioma cells; radiation dose 2 Gy) was 34.1% and the “mean survival fraction in relation” value (U251 glioma cells; radiation dose 4 Gy) was 11.9%. The “mean survival fraction in relation” value (U251 glioma cells; radiation dose 6 Gy) was 3.8% and the “mean survival fraction in relation” value (U251 glioma cells; radiation dose 8 Gy) was 1.0%.
